# Results taken from article PMC10734772 (Turkish Journal of Chemistry, 2021).
# Tests used:
# Type in all cases: cell-based
# [1] = system: Jurkat; assay: MTT assay, Jurkat cells; conditions: Homo sapiens, 24 h, read-out: Viability rate
# [2] = system: Molt-4; assay: MTT assay, Molt-4 cells
# [3] = system: K562; assay: MTT assay, K562 cells; conditions: Homo sapiens, 24 h
# Protocol: (§1) K562, Jurkat and Molt-4 cell lines were seeded as 4x10^5/ml, Reh and Nalm-6 cell lines were seeded 5x10^5/ml, Hek293T cell line was seed as 2x10^5/ml.
# (§2) MTT assay is a 3-day test. On the first day, cell count was performed in Bio Rad TC-20 device with the help of trypan blue, each cell line was prepared by diluting to the specified concentrations and seeded in a 96-well plate as 100μL to each well and incubated for 1 day.
# (§3) On the second day, stock solutions were subsequently diluted to various concentrations (0.3–200 μM) with related medium prior to experiments. Specified concentrations of the compounds were seeded in a 96-well plate as 100μL to each well and incubated for 24 h.
# (§4) After incubation (on the third day), to precipitate leukemia cells, the cell plate was centrifuged at 1500 rpm for 5 min. […] The 50 μl of supernatant was discarded from each well and 100 μl of DMSO was added to dissolve the formazan. Plates were shaken for 45 min to dissolve the dye. Then the optical density of each well was measured by using Thermo VarioSkan Flush Multimode Reader Quantum ST5-1100 at 570 nm wavelength.
# (§5) Subsequently, viability rate of the cells at each concentration, as percentage, was determined by following formula (1):
# (§6) Viability rate (%)=100-[(OD(control)-OD(sample))/OD(control)×100].OD=Optical Density
# (§7) The IC50 values were calculated by using GraphPad Prism. All the data presented as the mean of 6 replicates. […] Statistical analysis was performed using dose-response inhibition, log(inhibitor) vs response-variable slope, least squares (ordinary) fit.
# [4] = system: Reh; assay: MTT assay, Reh cells; conditions: Homo sapiens, 24 h, read-out: Viability rate
# [5] = system: K562, Nalm-6, Molt-4, Reh, Jurkat, Hek293T cell lines; assay: MTT assay, overall judgement over all cell lines; conditions: overall judgement in words; for 6 and 10: on all cell lines, except Reh
# In short: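 MTT viability assay run across a range of compound concentrations in leukemic lines, BCR-ABL positive K562 and BCR-ABL negative Nalm-6, Molt-4, Reh, Jurkat, plus non-leukemic Hek293T. Viability rate calculated per concentration.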
# [6] = system: Nalm-6; assay: MTT assay, Nalm-6 cells; conditions: Homo sapiens, 24 h
# Protocol: as §1, §2, §3, §4, §5, §6, §7
# [7] = MTT assay, Hek293T non-leukemic control cells; conditions: human, read-out: Viability rate
compound,measurement,setting,value
"COc1ccc(CN2CCN(Cc3ccc(C(=O)Nc4ccc(C)c(Nc5cc(C)ccn5)c4)cc3)CC2)c(OC)c1OC [Compound 10, N-(4-Methyl-3-((4-methylpyridin-2-yl)amino)phenyl)-4-((4-(2,3,4-trimethoxybenzyl)piperazin-1-yl)methyl)benzamide]",viability at 0.3 µM,[1]; 0.3 μM,73 ± 0.1%
same,viability at 0.5 µM,[1]; 0.5 μM,71.7 ± 0.1%
same,viability at 1 µM,[1]; 1 μM,70.9 ± 0.08%
same,viability at 3 µM,[1]; 3 μM,69.4 ± 0.03%
same,viability at 5 µM,[1]; 5 μM,68.7 ± 0.05%
same,viability at 10 µM,[1]; 10 μM,68.1 ± 0.09%
same,viability at 15 µM,[1]; 15 μM,67.5 ± 0.07%
same,viability at 20 µM,[1]; 20 μM,64.1 ± 0.15%
same,viability at 30 µM,[1]; 30 μM,61.7 ± 0.07%
same,viability at 50 µM,[1]; 50 μM,61.4 ± 0.05%
same,viability at 70 µM,[1]; 70 μM,50.5 ± 0.02%
same,viability at 100 µM,[1]; 100 μM,38.1 ± 0.2%
same,viability at 150 µM,[1]; 150 μM,35.9 ± 0.12%
same,viability at 200 µM,[1]; 200 μM,32.5 ± 0.03%
same,viability at 0.3 µM,"[2]; Homo sapiens, MOLT-4, 24 h, Molt-4, 0.3 μM, read-out: Viability rate",87.9 ± 0.03%
same,viability at 0.5 µM,"[2]; Homo sapiens, MOLT-4, 24 h, Molt-4, 0.5 μM, read-out: Viability rate",86.8 ± 0.02%
same,viability at 1 µM,"[2]; Homo sapiens, MOLT-4, 24 h, Molt-4, 1 μM, read-out: Viability rate",87.7 ± 0.01%
same,viability at 3 µM,"[2]; Homo sapiens, MOLT-4, 24 h, Molt-4, 3 μM, read-out: Viability rate",86.5 ± 0.02%
same,viability at 5 µM,"[2]; Homo sapiens, MOLT-4, 24 h, Molt-4, 5 μM, read-out: Viability rate",86.2 ± 0.08%
same,viability at 10 µM,"[2]; Homo sapiens, MOLT-4, 24 h, Molt-4, 10 μM, read-out: Viability rate",89.1 ± 0.03%
same,viability at 15 µM,"[2]; Homo sapiens, MOLT-4, 24 h, Molt-4, 15 μM, read-out: Viability rate",88.1 ± 0.04%
same,viability at 20 µM,"[2]; Homo sapiens, MOLT-4, 24 h, Molt-4, 20 μM, read-out: Viability rate",77 ± 0.04%
same,viability at 30 µM,"[2]; Homo sapiens, MOLT-4, 24 h, Molt-4, 30 μM, read-out: Viability rate",65.3 ± 0.03%
same,viability at 50 µM,"[2]; Homo sapiens, MOLT-4, 24 h, Molt-4, 50 μM, read-out: Viability rate",52.1 ± 0.03%
same,viability at 70 µM,"[2]; Homo sapiens, MOLT-4, 24 h, Molt-4, 70 μM, read-out: Viability rate",42.8 ± 0.01%
same,viability at 100 µM,"[2]; Homo sapiens, MOLT-4, 24 h, Molt-4, 100 μM, read-out: Viability rate",40.4 ± 0.01%
same,viability at 150 µM,"[2]; Homo sapiens, MOLT-4, 24 h, Molt-4, 150 μM, read-out: Viability rate",40 ± 0.01%
same,viability at 200 µM,"[2]; Homo sapiens, MOLT-4, 24 h, Molt-4, 200 μM, read-out: Viability rate",40.7 ± 0.01%
same,Viability rate,"[2]; Molt-4, 200 μM, 24 h, 200 µM",< 50%
same,viability at 0.3 µM,"[3]; K562, 0.3 μM, MTT, read-out: Viability rate",104.1 ± 0.07%
same,viability at 0.5 µM,"[3]; K562, 0.5 μM, MTT, read-out: Viability rate",103.4 ± 0.06%
same,viability at 1 µM,"[3]; K562, 1 μM, MTT, read-out: Viability rate",98.9 ± 0.05%
same,viability at 3 µM,"[3]; K562, 3 μM, MTT, read-out: Viability rate",98.7 ± 0.04%
same,viability at 5 µM,"[3]; K562, 5 μM, MTT, read-out: Viability rate",98.6 ± 0.06%
same,viability at 10 µM,"[3]; K562, 10 μM, MTT, read-out: Viability rate",98.9 ± 0.09%
same,viability at 15 µM,"[3]; K562, 15 μM, MTT, read-out: Viability rate",98.6 ± 0.08%
same,viability at 20 µM,"[3]; K562, 20 μM, MTT, read-out: Viability rate",79.2 ± 0.06%
same,viability at 30 µM,"[3]; K562, 30 μM, MTT, read-out: Viability rate",78.9 ± 0.1%
same,viability at 50 µM,"[3]; K562, 50 μM, MTT, read-out: Viability rate",56.1 ± 0.03%
same,viability at 70 µM,"[3]; K562, 70 μM, MTT, read-out: Viability rate",38.5 ± 0.02%
same,viability at 100 µM,"[3]; K562, 100 μM, MTT, read-out: Viability rate",38.7 ± 0.01%
same,viability at 150 µM,"[3]; K562, 150 μM, MTT, read-out: Viability rate",38.9 ± 0.01%
same,viability at 200 µM,"[3]; K562, 200 μM, MTT, read-out: Viability rate",38.7%
same,IC50,"[3]; K562, MTT, range 0.3–200 μM, six replicates",35 µM
same,viability at 0.3 µM,[4]; 0.3 μM,93.4 ± 0.02%
same,viability at 0.5 µM,[4]; 0.5 μM,92.4 ± 0.02%
same,viability at 1 µM,[4]; 1 μM,92.4 ± 0.01%
same,viability at 3 µM,[4]; 3 μM,92.6 ± 0.02%
same,viability at 5 µM,[4]; 5 μM,92.8 ± 0.02%
same,viability at 10 µM,[4]; 10 μM,92.3 ± 0.03%
same,viability at 15 µM,[4]; 15 μM,92.6 ± 0.02%
same,viability at 20 µM,[4]; 20 μM,91.8 ± 0.01%
same,viability at 30 µM,[4]; 30 μM,65.6 ± 0.02%
same,viability at 50 µM,[4]; 50 μM,59.5 ± 0.03%
same,viability at 70 µM,[4]; 70 μM,59.1 ± 0.02%
same,viability at 100 µM,[4]; 100 μM,59.6 ± 0.03%
same,viability at 150 µM,[4]; 150 μM,57.4 ± 0.03%
same,viability at 200 µM,[4]; 200 μM,55.2 ± 0.03%
same,anticancer activity according to MTT assay results,[5],high anticancer activity
same,viability at 0.3 µM,"[6]; Nalm-6, 0.3 μM, MTT, read-out: Viability rate",92.7 ± 0.08%
same,viability at 0.5 µM,"[6]; Nalm-6, 0.5 μM, MTT, read-out: Viability rate",88.6 ± 0.06%
same,viability at 1 µM,"[6]; Nalm-6, 1 μM, MTT, read-out: Viability rate",87.3 ± 0.07%
same,viability at 3 µM,"[6]; Nalm-6, 3 μM, MTT, read-out: Viability rate",86.5 ± 0.02%
same,viability at 5 µM,"[6]; Nalm-6, 5 μM, MTT, read-out: Viability rate",85.5 ± 0.06%
same,viability at 10 µM,"[6]; Nalm-6, 10 μM, MTT, read-out: Viability rate",84.8 ± 0.08%
same,viability at 15 µM,"[6]; Nalm-6, 15 μM, MTT, read-out: Viability rate",82.2 ± 0.08%
same,viability at 20 µM,"[6]; Nalm-6, 20 μM, MTT, read-out: Viability rate",71.9 ± 0.07%
same,viability at 30 µM,"[6]; Nalm-6, 30 μM, MTT, read-out: Viability rate",54.2 ± 0.07%
same,viability at 50 µM,"[6]; Nalm-6, 50 μM, MTT, read-out: Viability rate",29.8 ± 0.01%
same,viability at 70 µM,"[6]; Nalm-6, 70 μM, MTT, read-out: Viability rate",28.8 ± 0.01%
same,viability at 100 µM,"[6]; Nalm-6, 100 μM, MTT, read-out: Viability rate",28.7 ± 0.01%
same,viability at 150 µM,"[6]; Nalm-6, 150 μM, MTT, read-out: Viability rate",28.5 ± 0.01%
same,viability at 200 µM,"[6]; Nalm-6, 200 μM, MTT, read-out: Viability rate",28.7%
same,IC50,"[6]; Nalm-6, MTT, range 0.3–200 μM, six replicates",28.7 µM
same,"viability at 24 h, 0.3 µM","[7]; Hek293T cells (non-leukemic control cell line), 0.3 μM",82.8 ± 0.02%
same,"viability at 24 h, 0.5 µM","[7]; Hek293T cells (non-leukemic control cell line), 0.5 μM",78.2 ± 0.01%
same,"viability at 24 h, 3 µM","[7]; Hek293T cells (non-leukemic control cell line), 3 μM",80.4 ± 0.02%
same,"viability at 24 h, 5 µM","[7]; Hek293T cells (non-leukemic control cell line), 5 μM",79.1 ± 0.01%
same,"viability at 24 h, 10 µM","[7]; Hek293T cells (non-leukemic control cell line), 10 μM",80.2 ± 0.02%
same,"viability at 24 h, 15 µM","[7]; Hek293T cells (non-leukemic control cell line), 15 μM",81.4 ± 0.01%
same,"viability at 24 h, 20 µM","[7]; Hek293T cells (non-leukemic control cell line), 20 μM",80.8 ± 0.01%
same,"viability at 24 h, 30 µM","[7]; Hek293T cells (non-leukemic control cell line), 30 μM",82.2 ± 0.03%
same,"viability at 24 h, 50 µM","[7]; Hek293T cells (non-leukemic control cell line), 50 μM",79.2 ± 0.03%
same,"viability at 24 h, 70 µM","[7]; Hek293T cells (non-leukemic control cell line), 70 μM",80.2 ± 0.02%
same,"viability at 24 h, 100 µM","[7]; Hek293T cells (non-leukemic control cell line), 100 μM",80.7 ± 0.01%
same,"viability at 24 h, 150 µM","[7]; Hek293T cells (non-leukemic control cell line), 150 μM",80 ± 0.01%
same,"viability at 24 h, 200 µM","[7]; Hek293T cells (non-leukemic control cell line), 200 μM",81 ± 0.02%
same,"viability at 24 h, 1 µM","[7]; Hek293T cells, 1 μM",78.1 ± 0.01%
